Measured values published in US5955082A, “Insecticidal factor from field peas” (Her Majesty the Queen in right of Canada, as represented by …, priority 1997, dated 1999).

Tests used:
S. oryzae = assay: Wheat flour disk feeding bioassay of lectins and trypsin inhibitors; format: in vivo; conditions: for Feeding Rate (% of Control): 1% w/w in wheat flour disk; for Activity against S. oryzae: native form, 1% w/w
Method: Lectins and trypsin inhibitors shown in Table 20 were assayed in their native form to determine their activity against S. oryzae in the wheat flour disk bioassay.

rice weevil = assay: Flour disk feeding bioassay; format: in vivo, Sitophilus oryzae (L.)
Method: The rice weevil [Sitophilus oryzae (L.)] was used for all bioassays. One ml of an aqueous solution containing test material was mixed with 200 mg wheat flour. Distilled water was used as a control. Approximately 100 μl of the stirred suspension were removed and placed in the bottom of a polystyrene Petri dish, and allowed to air dry overnight at room temperature to produce the flour disks. The disks were equilibrated at 30±1° C. and 70±5% r.h. for 24 hr to stabilize the moisture content. Individual weighed disks and 5 adult beetles (1 to 7 days old, starved for 24 hrs before use) were transferred to petri dishes and kept at 30±1° C. and 70±5% r.h. for 4 days (5 replicates) before the remains of the flour disk were weighed.
Saponins, characterized by their bitter taste, foaming in aqueous solutions and haemolytic activity, are a diverse group of secondary plant metabolites containing a carbohydrate moiety (mono- or oligosaccharide) attached to either a steroid (C27) or a triterpenoid (C30). Saponins are reported to have insecticidal activity. Saponin extractions were prepared from the seeds of commercial peas (Pisum sativum). Approximately 100 g seeds were milled with a Stein mill for 5 minutes and 10 g flour was extracted with 1000 ml chloroform for 16 hrs in a Soxhlet extractor to remove pigments and lipids. Three hundred mg air-dried defatted flour was refluxed for 5 min with 60 ml 80% MeOH, then transferred to a centrifuge tube with 2×5 ml 80% MeOH rinse. The slurry extracts were centrifuged at 10,000 rpm for 10 min. The pellet was dried at room temperature for testing the residual insecticidal activities and the supernatant was evaporated to 7-8 ml under reduced pressure in a rotary evaporator at 37° C. The solution and additional 3 ml distilled water rinse were applied to a reverse phase C18 cartridge (Sep Pak, C18). The column was washed with 3×5 ml 30% MeOH then eluted with 4×5 ml MeOH. The MeOH elute was evaporated to dryness in a rotary evaporator, and then dissolved in 6 ml distilled water (at a concentration equivalent to 50 mg defatted flour per ml). This extract was used for bioassay.
One ml saponin extract (50 mg equivalent/ml) was loaded on ion exchange columns (2 ml volume) with Dowex AG-SOW [H^+ ] and Dowex AG-1 [Cl^- ] respectively. The columns were eluted with 10 ml distilled water. The water elute was evaporated to dryness in a rotary evaporator, and then dissolve in 1 ml distilled water. The water fractions were used for HPLC analysis and bioassay.
The bioassays were as described in the preceding example.

## Soybean trypsin inhibitor
S. oryzae
  Feeding Rate (% of Control): 98.7%
  Activity against S. oryzae: inactive

## CC1OC(OC2C(OC3C(OC4CCC5(C)C(CCC6(C)C5CC=C5C7CC(C)(C)CC(O)C7(C)CCC56C)C4(C)CO)OC(C(=O)O)C(O)C3O)OC(CO)C(O)C2O)C(O)C(O)C1O (centres unmarked) [Soyasaponin I]
Rice weevil; 0.63 mg/g
  Food consumption: 0.52 mg/day/insect
  Food consumption, % of control: 99.8%
Rice weevil; 1.25 mg/g
  Food consumption: 0.44 mg/day/insect
  Food consumption, % of control: 84.2%
Rice weevil; 2.50 mg/g
  Food consumption: 0.43 mg/day/insect
  Food consumption, % of control: 82.8%
Rice weevil; 5.00 mg/g
  Food consumption: 0.46 mg/day/insect
  Food consumption, % of control: 88.4%
Rice weevil; 10.0 mg/g
  Food consumption: 0.51 mg/day/insect
  Food consumption, % of control: 97.9%
Rice weevil; ~0.6 mg/g and up to 10 mg/g
  Activity against the test insect: not active

## Concanavalin A
S. oryzae
  Feeding Rate (% of Control): 82.5%
  Activity against S. oryzae: weakly active

B1: Pea lectin: pea lectin, native form (protein, UniProt P02867 31-217; P02867 218-275, looked up)
Lectin beta chain: TETTSFLITKFSPDQQNLIFQGDGYTTKEKLTLTKAVKNTVGRALYSSPIHIWDRETGNVANFVTSFTFVINAPNSYNVADGFTFFIAPVDTKPQTGGGYLGVFNSAEYDKTTQTVAVEFDTFYNAAWDPSNRDRHIGIDVNSIKSVNTKSWKLQNGEEANVVIAFNAATNVLTVSLTYPNSLEEEN
Lectin alpha chain: VTSYTLSDVVSLKDVVPEWVRIGFSATTGAEYAAHEVLSWSFHSELSGTSSSKQAADA
S. oryzae
  Feeding Rate (% of Control): 71.4%
  Activity against S. oryzae: weakly active
